Reference: BindingDB's records for doi:10.1021/acsmedchemlett.9b00381 (Dana-Farber Cancer Institute, 2019)
pIC50: −log10 of the molar value.

Columns and labels:
[1] = Inhibition of EGFR L858R mutant (unknown origin) expressed in mouse Ba/F3 cells assessed as reduction in cell growth incubated for 72 hrs in presence of 1 ug/ml Cetuximab by celltiter-glo luminescent cell viability assay
[2] = Inhibition of EGFR triple T790M/L858R/C797S mutant (unknown origin) expressed in mouse Ba/F3 cells assessed as reduction in cell growth incubated for 72 hrs in presence of 1 ug/ml Cetuximab by celltiter-glo luminescent cell viability assay
[3] = Inhibition of EGFR double T790M/L858R mutant (unknown origin) expressed in mouse Ba/F3 cells assessed as reduction in cell growth incubated for 72 hrs in presence of 1 ug/ml Cetuximab by celltiter-glo luminescent cell viability assay
[4] = Inhibition of EGFR (unknown origin) expressed in mouse Ba/F3 cells assessed as reduction in cell growth incubated for 72 hrs in presence of 1 ug/ml Cetuximab by celltiter-glo luminescent cell viability assay

Compound	pIC50 [1]	pIC50 [2]	pIC50 [3]	pIC50 [4]
CN1CCN(c2ccc(Oc3ccc4c(c3)C(=O)N(Cc3ccccc3)c3cc(F)ccc3N4)cc2)CC1	5.57	6.70	6.44	5.49
O=C1c2cc(-c3ccc(N4CCNCC4)cc3)ccc2Nc2ccc(F)cc2N1Cc1ccccc1	5.43	6.03	6.11	5.39
